The source of these data is US7501383B2, “Substituted [1,2,4]triazolo[1,5-a]pyrimidines and their use for controlling harmful fungi” (BASF Aktiengesellschaft, priority 2004, dated 2009).

What is called melting point is the temperature of the solid-liquid transition. The molecule `CCCCCCc1nc2nnnc-2c(N)n1C` [I-2, 5-hexyl-6-methyl-7-aminotriazolopyrimidine] had a melting point of 193 to 194 °C.
